Data taken from patent US20200061007A1, “CANCER STEM CELL PROLIFERATION INHIBITOR” (NATIONAL INSTITUTE OF ADVANCED INDUSTRIAL SCIENCE AND …, priority 2014, published 2020).

Experiments:
[1] = tested on: human pancreatic cancer cells MIA-Paca2; assay: Tumor volume, MIA-Paca2/nude mice; type: in vivo
Protocol: A tumor piece of human pancreatic cancer cells MIA-Paca2 containing cells positive for cancer stem cell markers was subcutaneously transplanted to the dorsal part of each of 6-week-old female BALB/cAJc1-nu nude mice (4 mice/group, 5 mice only for the control group) using a trocar needle. At the time when the tumor volume reached 100 to 200 mm^3, the administration was started. Am80 was orally administered once a day at a dose of 2 mg/kg for 21 continuous days, and DXL was intravenously administered at a dose of 5 mg/kg from Day 1, 3 times at intervals of 4 days. In the combination group, the agents were administered at the same doses as, and by the same administration methods as, those in the cases of administration of each single agent. Measurement of the tumor diameter was carried out until the next day of the completion of the administration (Day 22). Based on the measured values of the longitudinal diameter and the transverse diameter, the tumor volume (mm^3) was determined according to the following formula: longitudinal diameter×transverse diameter^2/2. In the control group, physiological saline was intraperitoneally administered from Day 1, 3 times at intervals of 4 days.

[2] = tested on: human pancreatic cancer cells containing pancreatic cancer stem cells; assay: Growth of subcutaneously transplanted pancreatic cancer in nude mice; type: in vivo; conditions: Am80 3 mg/kg/day for 1 month, vs control
Protocol: (§1) Pancreatic cancer cells (1×10^6 cells) containing pancreatic cancer stem cells were subcutaneously transplanted to nude mice. Mice in which tumor formation was found 2 weeks later were subjected to administration of Am80 for 1 month at 3 mg/kg/day.
Pancreatic cancer cells (1×10^6 cells) containing pancreatic cancer stem cells were subcutaneously transplanted to nude mice. Mice in which tumor formation was found 2 weeks later were subjected to daily administration of Am80 at 3 mg/kg/day and administration of gemcitabine at 50 mg/kg at intervals of 3 days for 1 month. […] Gem herein represents gemcitabine.
Pancreatic cancer cells (1×10^6 cells) containing pancreatic cancer stem cells were subcutaneously transplanted to nude mice. Mice in which tumor formation was found 2 weeks later were subjected to daily administration of Am80 at 3 mg/kg/day and administration of VPA at 500 mg/kg at intervals of 3 days for 1 month.

[3] = tested on: Human Pancreatic Cancer Cell Panc-1 Spheroids; assay: ALDH activity (ALDEFLUOR, flow cytometry) in Panc-1 spheroids; type: cell-based; conditions: suspension culture with Am80 for 1 week
Protocol: As shown in Example 1, Am80 suppresses formation of cell clusters of the pancreatic cancer cell line in the suspension-culture state, and this might be due to a decrease in the number of the stem cells that act as the seeds of the cell clusters. It is known that the activity of aldehyde dehydrogenase (ALDH) is high in hematopoietic stem cells and progenitor cells, but low in differentiated cells. In view of this, a precursor Bodipy-aminoacetaldehyde (ALDEFLUOR, Stem Cell Technologies) was added to pancreatic cancer cells prepared by performing suspension culture in the presence of Am80 for 1 week, and the number of cells positive for the fluorescence of Bodipy-aminoacetate produced by metabolism by the aldehyde dehydrogenase activity was analyzed by quantification by flow cytometry.

[4] = Body weight of tumor-bearing nude mice; type: in vivo; conditions: Am80 3 mg/kg/day for 1 month
Protocol: as §1

[5] = tested on: human breast cancer cell line MCF-7; assay: Tumor volume, MCF-7/nude mice; type: in vivo
Protocol: A tumor piece of a human breast cancer cell line MCF-7 containing cells positive for cancer stem cell markers was subcutaneously transplanted to the dorsal part of each of 6-week-old female BALB/cAJc1-nu nude mice (5 mice/group) using a trocar needle. At the time when the tumor volume reached 100 to 200 mm^3, the administration was started. Am80 was orally administered once a day at a dose of 1 mg/kg for 21 continuous days, and DXL was intravenously administered at a dose of 3.5 mg/kg from Day 1, 3 times at intervals of 4 days. In the combination group, the agents were administered at the same doses as, and by the same administration methods as, those in the cases of administration of each single agent. Measurement of the tumor diameter was carried out until the next day of the completion of the administration (Day 22). The longitudinal diameter and the transverse diameter of the tumor were measured using a caliper, and the tumor volume (mm^3) was determined according to the following formula: longitudinal diameter×transverse diameter^2/2. In the control group, physiological saline was intraperitoneally administered from Day 1, 3 times at intervals of 4 days.

[6] = tested on: Human Pancreatic Cancer Cell Panc-1 Spheroids; assay: CD24+/CD44+/ESA+ cells by flow cytometry in Panc-1 spheroids; type: cell-based
Source text: Pancreatic cancer cells prepared by performing suspension culture in the presence of Am80 for 1 week was subjected to analysis of expression of cancer stem cell surface markers at the protein level by flow cytometry using fluorescence-labeled primary antibodies.

[7] = tested on: Human pancreatic cancer cells; assay: Sphere formation of gemcitabine-treated pancreatic cancer cells (colony count); type: cell-based; conditions: cells cultured with gemcitabine (10 nM) 1 week, then Am80 1 week
Protocol: Human pancreatic cancer cells were cultured in the suspension-culture state in the presence of gemcitabine (10 nM) for 1 week. Thereafter, Am80 was added to the culture, and suspension culture was carried out for 1 week, followed by counting the number of colonies formed.

[8] = tested on: Human Leukemia Cell Line Kasumi-1; assay: Growth inhibition of Kasumi-1, isobologram; type: cell-based; conditions: Homo sapiens; Kasumi-1, RPMI1640 with 20% FBS
Protocol: A human leukemia cell line Kasummi-1, containing cells positive for cancer stem cell markers, was cultured in RPMI1640 medium supplemented with 20% FBS, and the growth inhibitory action by the combination of Am80 and 5-AZ was studied using Isobologram. […] These concentrations were taken as 1.0, and the points corresponding to 1.0 in the two axes were connected to each other via a straight line. In cases where the ratio observed for the combination effect is on the line, the effect is additive, and, in cases where the ratio is below the line, the effect is synergistic.

**Q.** Which results are given for `CC1(C)CCC(C)(C)c2cc(NC(=O)c3ccc(C(=O)O)cc3)ccc21` [Am80, tamibarotene]?
**A.** tumor volume Day 1 ([1]; Am80 2 mg/kg oral daily 21 days, DXL 5 mg/kg i.v. 3 times at intervals of 4 days, Day 1): 151.3 mm^3; tumor volume Day 5 ([1]; Am80 2 mg/kg oral daily, DXL 5 mg/kg i.v., Day 5): 182.1 mm^3; tumor volume Day 9 ([1]; Am80 2 mg/kg oral daily, DXL 5 mg/kg i.v., Day 9): 255.5 mm^3; tumor volume Day 13 ([1]; Am80 2 mg/kg oral daily, DXL 5 mg/kg i.v., Day 13): 348.8 mm^3; tumor volume Day 17 ([1]; Am80 2 mg/kg oral daily, DXL 5 mg/kg i.v., Day 17): 429.9 mm^3; tumor volume Day 22 ([1]; Am80 2 mg/kg oral daily, DXL 5 mg/kg i.v., Day 22): 466.4 mm^3; growth of the pancreatic cancer [2]: could be suppressed in vivo compared to the control; ALDH activity (ALDH-positive cells) [3]: concentration-dependent decrease; body weight [4]: not influenced; tumor volume Day 1 ([5]; Am80 1 mg/kg oral daily 21 days, DXL 3.5 mg/kg i.v. 3 times at intervals of 4 days, Day 1): 155.3 mm^3; tumor volume Day 5 ([5]; Am80 1 mg/kg oral daily, DXL 3.5 mg/kg i.v., Day 5): 151.3 mm^3; tumor volume Day 9 ([5]; Am80 1 mg/kg oral daily, DXL 3.5 mg/kg i.v., Day 9): 155.5 mm^3; tumor volume Day 13 ([5]; Am80 1 mg/kg oral daily, DXL 3.5 mg/kg i.v., Day 13): 208.9 mm^3; tumor volume Day 17 ([5]; Am80 1 mg/kg oral daily, DXL 3.5 mg/kg i.v., Day 17): 229.4 mm^3; tumor volume Day 22 ([5]; Am80 1 mg/kg oral daily, DXL 3.5 mg/kg i.v., Day 22): 261.4 mm^3; abundance of cells positive for CD24+/CD44+/ESA+ ([6]; 10 μM Am80, suspension culture 1 week): reduced by half; abundance of cells positive for CD24+/CD44+/ESA+ ([6]; addition of Am80, suspension culture 1 week): significantly decreased; sphere formation (number of colonies formed) [7]: in vitro inhibitory effect on sphere formation; IC50 [8]: 1000 nM
